Reference: US6737383B1, “Herbicidal oxadiazolidines” (priority 1999, dated 2004)

What was measured:
wheat = experiment: Test B pre/postemergence wheat; assay type: in vivo, Triticum aestivum
Summary of the method: (§1)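 Herbicidal effect was estimated by eye on a ten-point control scale after plants spent twelve to sixteen days in a greenhouse following soil or foliar treatment. Foliar sprays targeted plants at one to four leaves; all doses were formulated in a non-phytotoxic solvent with surfactant.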

crabgrass = experiment: Test B pre/postemergence crabgrass; assay type: in vivo, Digitaria sanguinalis
Summary of the method: as §1

rice = experiment: Test B flood test rice; assay type: in vivo, Oryza sativa
Summary of the method: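 Each value is a visual injury score relative to controls, with 10 meaning complete control and 0 no effect. Evaluation took place twelve to sixteen days after the 2-leaf-stage plants were treated and kept in the greenhouse.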

wild oat = experiment: Test B pre/postemergence wild oat; assay type: in vivo, Avena fatua
Summary of the method: as §1

[1] = Postemergence, Rate 62 g/ha, scale 0 to 10, 0 is no effect, 10 is complete control
[2] = Postemergence, Rate 125 g/ha, scale of 0 to 10 where 0 is no effect and 10 is complete control
[3] = Preemergence, Rate 62 g/ha, scale 0 to 10 (0 no effect, 10 complete control)
[4] = Preemergence, Rate 125 g/ha, 0 is no effect, 10 is complete control
[5] = Preemergence, Rate 250 g/ha, scale of 0 to 10 where 0 is no effect and 10 is complete control
[6] = Preemergence, Rate 500 g/ha, scale 0 (no effect) to 10 (complete control)
[7] = Rate 250 g/ha, Postemergence, scale 0 to 10, 0 is no effect, 10 is complete control
[8] = Rate 500 g/ha, Postemergence, scale 0 to 10, 0 no effect, 10 complete control
[9] = Postemergence, Rate 250 g/ha, scale 0 to 10, 0 no effect, 10 complete control
[10] = Preemergence, Rate 125 g/ha, scale 0 to 10 (0 no effect, 10 complete control)
[11] = Rate 500 g/ha, listed under Postemergence (flood test species), scale 0 to 10, 0 no effect, 10 complete control
[12] = Preemergence, Rate 62 g/ha, scale 0 to 10, 0 is no effect, 10 is complete control
[13] = Rate 125 g/ha, Postemergence, scale 0 to 10, 0 no effect, 10 complete control
[14] = Preemergence, Rate 125 g/ha, scale of 0 to 10 where 0 is no effect and 10 is complete control
[15] = Preemergence, Rate 500 g/ha, scale of 0 to 10 where 0 is no effect and 10 is complete control
[16] = Rate 500 g/ha, Postemergence, scale 0 to 10, 0 is no effect, 10 is complete control
[17] = Rate 1000 g/ha, Preemergence, scale 0 to 10 (0 no effect, 10 complete control)

How did the “Wheat plant response rating” value (wheat; [1]) turn out when `Cc1nn(C)c(Cl)c1-n1c(=O)on(C(=O)N(c2ccc(F)cc2F)C(C)C)c1=O` [Compound 96] was run?
The value was 0.

And the “Wheat plant response rating” value (wheat; [2])?
Its value is 0.

And the “Wheat plant response rating” value (wheat; [3])?
The value was 0.

And the “Wheat plant response rating (0 to 10 scale)” value (wheat; [4])?
Its value is 0.

What about the “Plant response rating, Wheat” value (wheat; [5]) of the same compound?
Its value is 0.

What about the “Wheat plant response rating” value (wheat; [6]) of the same compound?
Its value is 0.

And the “Plant response rating, Wheat” value (wheat; [7])?
Its value is 0.

And the “Wheat plant response rating” value (wheat; [8])?
The value was 0.

What about the “Crabgrass plant response rating” value (crabgrass; [1]) of the same compound?
Its value is 1.

And the “Crabgrass plant response rating” value (crabgrass; [2])?
Its value is 3.

What about the “Crabgrass plant response rating” value (crabgrass; [9]) of the same compound?
Its value is 3.

What about the “Crabgrass plant response rating” value (crabgrass; [3]) of the same compound?
Its value is 1.

And the “Plant response rating, Crabgrass” value (crabgrass; [10])?
The value was 4.

And the “Plant response rating, Crabgrass” value (crabgrass; [5])?
The value was 7.

And the “Crabgrass plant response rating” value (crabgrass; [6])?
Its value is 9.

And the “Crabgrass plant response rating” value (crabgrass; [8])?
The value was 8.

What about the “Rice plant response rating” value (rice; Postemergence (flood test species), Rate 125 g/ha, scale of 0 to 10 where 0 is no effect and 10 is complete control) of the same compound?
The value was 0.

And the “Rice plant response rating” value (rice; [1])?
Its value is 0.

And the “Plant response rating, Rice” value (rice; Rate 250 g/ha, Postemergence (flood test), scale 0 to 10, 0 is no effect, 10 is complete control)?
Its value is 0.

What about the “Rice plant response rating” value (rice; [11]) of the same compound?
Its value is 2.

What about the “Wild oats plant response rating” value (wild oat; [1]) of the same compound?
Its value is 0.

What about the “Wild oats plant response rating” value (wild oat; [2]) of the same compound?
The value was 0.

And the “Wild oats plant response rating” value (wild oat; [3])?
The value was 0.

And the “Wild oats plant response rating (0 to 10 scale)” value (wild oat; [4])?
Its value is 0.

And the “Plant response rating, Wild oats” value (wild oat; [5])?
The value was 2.

What about the “Wild oats plant response rating” value (wild oat; [6]) of the same compound?
The value was 7.

What about the “Plant response rating, Wild oats” value (wild oat; [7]) of the same compound?
Its value is 0.

And the “Wild oats plant response rating” value (wild oat; [8])?
The value was 0.

How did the “Wheat plant response rating” value (wheat; [1]) turn out when `Cc1cccc(C)c1-n1c(=O)on(C(=O)N(c2ccc(Cl)cc2)C(C)C)c1=O` [Compound 47] was run?
Its value is 0.

What about the “Wheat plant response rating” value (wheat; [9]) of the same compound?
The value was 2.

And the “Plant response rating, Wheat” value (wheat; [12])?
The value was 0.

What about the “Plant response rating, Wheat” value (wheat; [10]) of the same compound?
The value was 0.

What about the “Plant response rating, Wheat” value (wheat; [5]) of the same compound?
Its value is 0.

What about the “Wheat plant response rating” value (wheat; [6]) of the same compound?
Its value is 0.

What about the “Wheat plant response rating” value (wheat; [13]) of the same compound?
The value was 0.

And the “Wheat plant response rating” value (wheat; [8])?
The value was 3.

And the “Crabgrass plant response rating” value (crabgrass; [1])?
Its value is 0.

And the “Crabgrass plant response rating” value (crabgrass; [9])?
The value was 0.

What about the “Plant response rating, Crabgrass” value (crabgrass; [12]) of the same compound?
Its value is 0.

And the “Plant response rating, Crabgrass” value (crabgrass; [10])?
The value was 2.

And the “Plant response rating, Crabgrass” value (crabgrass; [5])?
Its value is 2.

What about the “Crabgrass plant response rating” value (crabgrass; [6]) of the same compound?
Its value is 5.

What about the “Crabgrass plant response rating” value (crabgrass; [13]) of the same compound?
The value was 0.

What about the “Crabgrass plant response rating” value (crabgrass; [8]) of the same compound?
The value was 2.

What about the “Rice plant response rating” value (rice; Rate 125 g/ha, Pre-emergence, flood test species, scale 0 to 10 where 0 is no effect and 10 is complete control) of the same compound?
Its value is 0.

What about the “Rice plant response rating” value (rice; Rate 250 g/ha, headed Pre-emergence (flood test species), scale 0 to 10 (0 no effect, 10 complete control)) of the same compound?
Its value is 0.

And the “Plant response rating, Rice” value (rice; Rate 500 g/ha, headed Pre-emergence (flood test species), scale 0 to 10 (0 no effect, 10 complete control))?
The value was 0.

What about the “Rice plant response rating” value (rice; Rate 1000 g/ha, Pre-emergence (as headed), scale 0 to 10) of the same compound?
The value was 0.

And the “Rice plant response rating” value (rice; Rate 2000 g/ha, Pre-emergence (as headed), scale 0 to 10)?
The value was 0.

And the “Wild oats plant response rating” value (wild oat; [1])?
Its value is 0.

What about the “Wild oats plant response rating” value (wild oat; [9]) of the same compound?
The value was 0.

And the “Plant response rating, Wild oats” value (wild oat; [10])?
Its value is 0.

What about the “Plant response rating, Wild oats” value (wild oat; [5]) of the same compound?
Its value is 0.

And the “Wild oats plant response rating” value (wild oat; [6])?
The value was 0.

What about the “Wild oats plant response rating” value (wild oat; [13]) of the same compound?
The value was 0.

And the “Wild oats plant response rating” value (wild oat; [8])?
The value was 3.

How did the “Wheat plant response rating” value (wheat; [1]) turn out when `Cc1cc(C)c(-n2c(=O)on(C(=O)N(c3ccc(F)cc3)C(C)C)c2=O)c(C)c1` [Compound 60] was run?
Its value is 0.

And the “Wheat plant response rating” value (wheat; [9])?
The value was 0.

And the “Wheat plant response rating” value (wheat; [3])?
Its value is 0.

What about the “Plant response rating, Wheat” value (wheat; [10]) of the same compound?
The value was 0.

And the “Plant response rating, Wheat” value (wheat; [5])?
Its value is 0.

What about the “Wheat plant response rating” value (wheat; [6]) of the same compound?
Its value is 0.

What about the “Wheat plant response rating” value (wheat; [13]) of the same compound?
Its value is 0.

What about the “Wheat plant response rating” value (wheat; [8]) of the same compound?
Its value is 0.

And the “Crabgrass plant response rating” value (crabgrass; [1])?
Its value is 0.

And the “Crabgrass plant response rating” value (crabgrass; [9])?
Its value is 1.

And the “Crabgrass plant response rating” value (crabgrass; [3])?
The value was 0.

And the “Plant response rating, Crabgrass” value (crabgrass; [10])?
The value was 1.

And the “Plant response rating, Crabgrass” value (crabgrass; [5])?
The value was 1.

What about the “Crabgrass plant response rating” value (crabgrass; [6]) of the same compound?
Its value is 1.

And the “Crabgrass plant response rating” value (crabgrass; [13])?
Its value is 0.

And the “Crabgrass plant response rating” value (crabgrass; [8])?
Its value is 2.

And the “Rice plant response rating” value (rice; [1])?
Its value is 0.

And the “Rice plant response rating” value (rice; Rate 125 g/ha, Postemergence section (flood test species), scale 0 to 10, 0 no effect, 10 complete control)?
The value was 0.

And the “Rice plant response rating” value (rice; [11])?
The value was 0.

What about the “Rice plant response rating” value (rice; flood test, listed under Postemergence, Rate 250 g/ha, scale 0 to 10, 0 no effect, 10 complete control) of the same compound?
Its value is 0.

What about the “Wild oats plant response rating” value (wild oat; [1]) of the same compound?
The value was 0.

And the “Wild oats plant response rating” value (wild oat; [9])?
Its value is 0.

What about the “Wild oats plant response rating” value (wild oat; [3]) of the same compound?
Its value is 0.

And the “Plant response rating, Wild oats” value (wild oat; [10])?
The value was 0.

What about the “Plant response rating, Wild oats” value (wild oat; [5]) of the same compound?
Its value is 0.

What about the “Wild oats plant response rating” value (wild oat; [6]) of the same compound?
The value was 0.

What about the “Wild oats plant response rating” value (wild oat; [13]) of the same compound?
Its value is 0.

What about the “Wild oats plant response rating” value (wild oat; [8]) of the same compound?
The value was 0.

Which results are given for `COC(=O)C(CCO)n1c(=O)on(C(=O)N(c2ccc(F)cc2)C(C)C)c1=O` (stereo not drawn) [Compound 680]?
Wheat plant response rating (wheat; [2]): 0; Plant response rating, Wheat (wheat; [14]): 0; Plant response rating, Wheat (wheat; [15]): 0; Wheat plant response rating (wheat; [7]): 0; Wheat plant response rating (wheat; [16]): 0; Plant response rating, Wheat (wheat; [17]): 0; Crabgrass plant response rating (crabgrass; [2]): 0; Crabgrass plant response rating (crabgrass; Postemergence, Rate 1000 g/ha, scale 0 to 10 (0 no effect, 10 complete control)): 9; Plant response rating, Crabgrass (crabgrass; [14]): 0; Plant response rating, Crabgrass (crabgrass; Preemergence, Rate 250 g/ha, scale 0 to 10 (0 no effect, 10 complete control)): 3; Plant response rating, Crabgrass (crabgrass; [15]): 3; Crabgrass plant response rating (crabgrass; [7]): 1; Crabgrass plant response rating (crabgrass; [16]): 3; Plant response rating, Crabgrass (crabgrass; [17]): 3; Rice plant response rating (rice; Pre-emergence, Rate 1000 g/ha, scale 0 to 10 (0 no effect, 10 complete control)): 0; Rice plant response rating (0 to 10 scale, 0 is no effect, 10 is complete control) (rice; Rate 125 g/ha, under heading Pre-emergence, flood test species, visual evaluation after twelve to sixteen days): 0; Rice plant response rating (rice; Rate 250 g/ha, Pre-emergence (flood test species), scale 0 to 10, 0 is no effect, 10 is complete control): 0; Rice plant response rating (rice; Rate 500 g/ha, Pre-emergence section of Table B, 0 to 10 scale (0 no effect, 10 complete control)): 0; Wild oats plant response rating (wild oat; [2]): 0; Plant response rating, Wild oats (wild oat; [14]): 0; Plant response rating, Wild oats (wild oat; [15]): 0; Wild oats plant response rating (wild oat; [7]): 0; Wild oats plant response rating (wild oat; [16]): 0; Plant response rating, Wild oats (wild oat; [17]): 2
